In patent US20250163052A1, “cGAS INHIBITORS AND USES THEREOF” (Cornell University, priority 2022, published 2025):

What was measured:
NFkB-SEAP = experiment: THP1-Dual cells transfected with DNA, nfkb expression (Quantiblue); type: cell-based; settings: Homo sapiens; for inhibition at 10 µM: THP-1, 10 μM; for inhibition at 30 µM: THP-1, 30 μM
Description: (§1) Evaluation of active cGAS inhibitors in THP1 cells (Table 3). Cellular activity of all compounds (in Table 3) was determined using THP1-Dual™ cells as described (Lama et. al., 2019). THP1-Dual™ cells (Invivogen) (50000 cells in 100 μl media) were seeded into each well of a 96-well plate and treated with compounds at various dilution for 4 hours. Subsequently, cells were transfected with DNA (2 ug/ml) and lipofectamine and incubate the cells were incubated overnight. Ifnb expression was measured in cell supernatant using Quantiluc, nfkb expression was determined using Quantiblue, and cell viability using Promega® CellTiter-Glo®.

IFNB = experiment: THP1-Dual cells transfected with DNA, Ifnb expression (Quantiluc); type: cell-based; settings: Homo sapiens; for inhibition at 10 µM: THP-1, 10 μM; for inhibition at 30 µM: THP-1, 30 μM
Description: as §1

m-cGAS = m-cGAS (Mus musculus, UniProt Q8C6L5); experiment: Cell-free mouse cGAS enzyme inhibition assay (ATP depletion, Kinase-Glo Max); type: biochemical; settings: 1 h; for inhibition at 1 µM: read-out: m-cGAS, conc. 1 μM; for inhibition at 10 µM: read-out: m-cGAS, conc. 10 μM
m-cGAS, sequence (Q8C6L5 whole entry): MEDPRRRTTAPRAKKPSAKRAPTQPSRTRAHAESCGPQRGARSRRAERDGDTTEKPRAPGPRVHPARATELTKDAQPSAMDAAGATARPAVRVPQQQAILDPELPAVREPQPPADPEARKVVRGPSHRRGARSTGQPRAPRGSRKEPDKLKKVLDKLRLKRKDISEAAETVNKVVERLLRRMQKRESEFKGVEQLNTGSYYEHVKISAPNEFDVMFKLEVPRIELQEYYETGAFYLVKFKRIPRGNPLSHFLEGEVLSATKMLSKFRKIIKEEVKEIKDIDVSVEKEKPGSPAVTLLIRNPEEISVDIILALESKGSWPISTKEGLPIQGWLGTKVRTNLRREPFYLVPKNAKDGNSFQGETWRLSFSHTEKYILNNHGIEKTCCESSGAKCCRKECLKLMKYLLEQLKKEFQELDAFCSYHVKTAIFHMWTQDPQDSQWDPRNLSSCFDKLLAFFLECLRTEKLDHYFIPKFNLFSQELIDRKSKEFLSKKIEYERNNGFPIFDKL
Description: (§2) Cell-free mouse and human cGAS enzyme inhibition assay (Table 2). Activity of all compounds (in Table 1) against m-cGAS (30 nM) and or h-cGAS, (100 nM) was determined by measuring the conversion of ATP and GTP (100 μM each) to cGAMP in the presence of dsDNA (5 ug/mL) in a reaction buffer composed of Tris-HCl (20 mM, pH7.4), NaCl (150 mM), MnCl2 (0.2 mM, h-cGAS) or MgCl2 (5 mM, m-cGAS) and Tween-20 (0.01%), and the remaining ATP concentration using Kinase-Glo®Max Luminescent Kinase Assay (Promega, Madison, WI), as described (Lama, et. al., 2019). Briefly, 10 μl of a master mix of 0.4 mM ATP, 0.4 mM GTP, 0.02 mg/mL dsDNA in the reaction buffer supplemented with 2 mM DTT was added to reaction wells containing TDI-6570 or TDI-8246 (2× of the desired concentration) in the same buffer ([…]) using a Thermo 8-channel Multidrop Combi dispenser. Next, 10 μl of a 4×m-cGAS (0.120 μM) or h-cGAS (0.4 μM) solution in the reaction buffer supplemented with 2 mM DTT was added to appropriate wells. Similar sets of reactions without cGAS or the inhibitor was set by adding the buffer alone. The reactions with the plates sealed were incubated at 37° C. (1 hour for m-cGAS and 3 hours for h-cGAS) and stopped by addition of 40 μl of the Kinase-Glo®Max. The luminescence was recorded in relative light units (RLUs) using a Biotek Synergy H1 Hybrid plate reader (BioTek, Winooski, VT). […] All reactions were run in triplicates and calculated using GraphPad Prism 9. The values represent mean IC50±S.D.

THP1 cells = experiment: THP1-Dual cells, cell viability (CellTiter-Glo); type: cell-based
Description: as §1

h-cGAS = h-cGAS (Homo sapiens, UniProt Q8N884); experiment: Cell-free human cGAS enzyme inhibition assay (ATP depletion, Kinase-Glo Max); type: biochemical; settings: 3 h; for inhibition at 1 µM: read-out: h-cGAS, conc. 1 μM; for inhibition at 10 µM: read-out: h-cGAS, conc. 10 μM
h-cGAS, sequence (Q8N884 whole entry): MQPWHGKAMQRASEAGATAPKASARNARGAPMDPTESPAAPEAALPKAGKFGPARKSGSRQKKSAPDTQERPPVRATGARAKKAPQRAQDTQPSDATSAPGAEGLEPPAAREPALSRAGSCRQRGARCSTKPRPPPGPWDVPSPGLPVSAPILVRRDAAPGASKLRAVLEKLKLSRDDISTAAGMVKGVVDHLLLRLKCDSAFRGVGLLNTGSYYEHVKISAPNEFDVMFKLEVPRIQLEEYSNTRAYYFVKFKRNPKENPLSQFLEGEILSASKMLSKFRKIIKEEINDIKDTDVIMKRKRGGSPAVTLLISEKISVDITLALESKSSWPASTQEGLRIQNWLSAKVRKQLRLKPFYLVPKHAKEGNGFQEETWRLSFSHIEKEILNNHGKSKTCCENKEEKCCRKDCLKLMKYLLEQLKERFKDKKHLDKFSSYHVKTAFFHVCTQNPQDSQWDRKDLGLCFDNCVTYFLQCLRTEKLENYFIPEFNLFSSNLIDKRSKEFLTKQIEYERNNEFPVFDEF
Description: as §2

Row | SMILES | inhibition at 10 µM (NFkB-SEAP) [%] | inhibition at 30 µM (NFkB-SEAP) [%] | inhibition at 10 µM (IFNB) [%] | inhibition at 30 µM (IFNB) [%] | inhibition at 1 µM (m-cGAS) [%] | inhibition at 10 µM (m-cGAS) [%] | Cell viability 10 μM (THP1 cells) | Cell viability 30 μM (THP1 cells) | inhibition at 1 µM (h-cGAS) [%] | inhibition at 10 µM (h-cGAS) [%]
1 | NCC(=O)N1CCc2c(sc3c(Cl)c(Cl)cc(-c4cccs4)c23)C1 [Compound 81] | 75 to 100 | 75 to 100 | 50 to 74 | 75 to 100 | 0 to 24 | 50 to 74 | +++ (+, ++, and +++ mean the compound respectively shows 25-49%; 50-74%; or 75-100% viability to cells) | − (Cell viability <24%, in THP1 cells is expressed as “−”) | 0 to 24 | 50 to 74
2 | CN1c2c(Cl)c(Cl)cc(-c3cnn(C)c3)c2C2CN(C(=O)CN)CCC21 (stereo not drawn) [Compound 12] | < 24 | – | < 24 | – | – | 0 to 24 | +++ (+, ++, and +++ mean the compound respectively shows 25-49%; 50-74%; or 75-100% viability to cells) | – | 0 to 24 | 75 to 100
3 | Cn1ncc(-c2cc(Cl)c(Cl)c3sc4c(c23)CCN(C(=O)CN)C4)n1 [Compound 92] | 75 to 100 | 75 to 100 | 75 to 100 | 75 to 100 | 25 to 49 | 75 to 100 | ++ (+, ++, and +++ mean the compound respectively shows 25-49%; 50-74%; or 75-100% viability to cells) | − (Cell viability <24%, in THP1 cells is expressed as “−”) | 25 to 49 | 50 to 74
4 | CNc1cnn(-c2cc(Cl)c(Cl)c3sc4c(c23)CCN(C(=O)CN)C4)c1 [Compound 95] | 25 to 49 | 25 to 49 | < 24 | 25 to 49 | – | 50 to 74 | +++ (+, ++, and +++ mean the compound respectively shows 25-49%; 50-74%; or 75-100% viability to cells) | +++ (+, ++, and +++ mean the compound respectively shows 25-49%; 50-74%; or 75-100% viability to cells) | – | 50 to 74
5 | NCC(=O)N1CCc2c(sc3c(Cl)c(Cl)cc(-c4nccs4)c23)C1 [Compound 84] | < 24 | 50 to 74 | 25 to 49 | 75 to 100 | 0 to 24 | 50 to 74 | +++ (+, ++, and +++ mean the compound respectively shows 25-49%; 50-74%; or 75-100% viability to cells) | − (Cell viability <24%, in THP1 cells is expressed as “−”) | 25 to 49 | 75 to 100
6 | CC(C)(N)C(=O)N1CCc2[nH]c3c(Cl)c(Cl)cc(-c4cc[nH]n4)c3c2C1 [Compound 20] | 75 to 100 | 75 to 100 | 50 to 74 | 75 to 100 | – | 0 to 24 | +++ (+, ++, and +++ mean the compound respectively shows 25-49%; 50-74%; or 75-100% viability to cells) | +++ (+, ++, and +++ mean the compound respectively shows 25-49%; 50-74%; or 75-100% viability to cells) | 25 to 49 | 75 to 100
7 | Cc1csc(-c2cc(Cl)c(Cl)c3sc4c(c23)CCN(C(=O)CN)C4)n1 [Compound 91] | 25 to 49 | – | 50 to 74 | – | 0 to 24 | 50 to 74 | ++ (+, ++, and +++ mean the compound respectively shows 25-49%; 50-74%; or 75-100% viability to cells) | − (Cell viability <24%, in THP1 cells is expressed as “−”) | 25 to 49 | 50 to 74
8 | Cn1c2c(c3c(-c4cncnc4)cc(Cl)c(Cl)c31)CN(C(=O)CN)CC2 [Compound 8] | 25 to 49 | 50 to 74 | 50 to 74 | 75 to 100 | – | 0 to 24 | +++ (+, ++, and +++ mean the compound respectively shows 25-49%; 50-74%; or 75-100% viability to cells) | − (Cell viability <24%, in THP1 cells is expressed as “−”) | 50 to 74 | 75 to 100
9 | NCC(=O)N1CCc2c(sc3c(Cl)c(Cl)cc(-c4cnccn4)c23)C1 [Compound 90] | 25 to 49 | 75 to 100 | 25 to 49 | 50 to 74 | 25 to 49 | 50 to 74 | +++ (+, ++, and +++ mean the compound respectively shows 25-49%; 50-74%; or 75-100% viability to cells) | − (Cell viability <24%, in THP1 cells is expressed as “−”) | 0 to 24 | 50 to 74
10 | NCC(=O)N1CCc2c(sc3c(Cl)c(Cl)cc(-n4cccn4)c23)C1 [Compound 94] | < 24 | – | < 24 | – | 0 to 24 | 50 to 74 | +++ (+, ++, and +++ mean the compound respectively shows 25-49%; 50-74%; or 75-100% viability to cells) | – | 25 to 49 | 50 to 74
11 | NCC(=O)N1CCc2c(sc3c(Cl)c(Cl)cc(-n4ccnc4)c23)C1 [Compound 97] | 25 to 49 | 75 to 100 | 50 to 74 | 75 to 100 | – | 50 to 74 | +++ (+, ++, and +++ mean the compound respectively shows 25-49%; 50-74%; or 75-100% viability to cells) | +++ (+, ++, and +++ mean the compound respectively shows 25-49%; 50-74%; or 75-100% viability to cells) | – | 25 to 49
12 | NCC(=O)N1CCc2c(sc3c(Cl)c(Cl)cc(-c4ccco4)c23)C1 [Compound 80] | 50 to 74 | 75 to 100 | 50 to 74 | 75 to 100 | 25 to 49 | 75 to 100 | +++ (+, ++, and +++ mean the compound respectively shows 25-49%; 50-74%; or 75-100% viability to cells) | − (Cell viability <24%, in THP1 cells is expressed as “−”) | 25 to 49 | 75 to 100
13 | O=C(CO)N1CCc2oc3c(Cl)c(Cl)cc(-c4cncnc4)c3c2C1 [Compound 25] | < 24 | – | – | < 24 | 0 to 24 | 50 to 74 | +++ (+, ++, and +++ mean the compound respectively shows 25-49%; 50-74%; or 75-100% viability to cells) | – | 25 to 49 | 50 to 74
14 | NCC(=O)N1CCc2c(sc3c(Cl)c(Cl)cc(-c4ncccn4)c23)C1 [Compound 89] | < 24 | 50 to 74 | < 24 | 50 to 74 | 0 to 24 | 25 to 49 | +++ (+, ++, and +++ mean the compound respectively shows 25-49%; 50-74%; or 75-100% viability to cells) | ++ (+, ++, and +++ mean the compound respectively shows 25-49%; 50-74%; or 75-100% viability to cells) | 0 to 24 | 50 to 74
15 | Cn1ccc(-c2cc(Cl)c(Cl)c3sc4c(c23)CCN(C(=O)CN)C4)n1 [Compound 83] | 75 to 100 | 75 to 100 | 50 to 74 | 75 to 100 | 25 to 49 | 75 to 100 | ++ (+, ++, and +++ mean the compound respectively shows 25-49%; 50-74%; or 75-100% viability to cells) | − (Cell viability <24%, in THP1 cells is expressed as “−”) | 25 to 49 | 50 to 74
